Source: ChEMBL document CHEMBL4373744, “Modifying the lipophilic part of phenylthiazole antibiotics to control their drug-likeness” (Eur J Med Chem, 2020)
Converted amounts (≈) assume the structure as drawn. The source made the active and inactive calls. No cut-off for these calls is given here.

What was measured:
Escherichia coli [1] = test: Antimicrobial activity against Escherichia coli BW25113 by broth liquid microdilution method; assay type: functional
Escherichia coli [2] = test: Antimicrobial activity against Escherichia coli JW55031 harboring deltatolC mutant by broth liquid microdilution method; assay type: functional
Staphylococcus aureus [3] = test: microbe, parasite or virus in culture; conditions: NRS384
Description: Antimicrobial activity against methicillin-resistant Staphylococcus aureus NRS384 by broth liquid microdilution method

Staphylococcus aureus [4] = test: Antimicrobial activity against vancomycin-resistant Staphylococcus aureus 12 by broth liquid microdilution method; assay type: functional
Enterococcus faecalis = test: microbe, parasite or virus in culture; conditions: ATCC 51299
Staphylococcus aureus [5] = test: microbe, parasite or virus in culture; conditions: NRS119
Description: Antimicrobial activity against methicillin-resistant Staphylococcus aureus NRS119 by broth liquid microdilution method

Staphylococcus aureus [6] = test: microbe, parasite or virus in culture; conditions: NRS 385
Description: Antimicrobial activity against methicillin-resistant Staphylococcus aureus NRS 385 by broth liquid microdilution method

Staphylococcus aureus [7] = test: microbe, parasite or virus in culture; conditions: NRS123
Description: Antimicrobial activity against methicillin-resistant Staphylococcus aureus NRS123 by broth liquid microdilution method

Listeria monocytogenes = test: Antimicrobial activity against Listeria monocytogenes ATCC 19111 by broth liquid microdilution method; assay type: functional
Staphylococcus aureus [8] = test: Bactericidal activity against methicillin-resistant Staphylococcus aureus USA400 assessed as 3 log reduction in number of colony forming units at 5 times MIC incubated for 10 hrs by aliquots transfer to tryptic soy agar and grown for 18 to 20 hrs by Time-kill assay relative to control; assay type: functional; design: scale not given: the % may be the effect or the level left
[9] = system: Staphylococcus epidermidis; test: Antimicrobial activity against methicillin-resistant Staphylococcus epidermidis NRS101 by broth liquid microdilution method; assay type: functional
Staphylococcus aureus [10] = test: microbe, parasite or virus in culture; conditions: ATCC 6538
Description: Antimicrobial activity against methicillin-sensitive Staphylococcus aureus ATCC 6538 by broth liquid microdilution method

Staphylococcus aureus [11] = test: microbe, parasite or virus in culture; conditions: NRS 107
Description: Antimicrobial activity against methicillin-sensitive Staphylococcus aureus NRS 107 by broth liquid microdilution method

Enterococcus faecium = test: Antimicrobial activity against vancomycin-resistant Enterococcus faecium ATCC 700221 by broth liquid microdilution method; assay type: functional
Staphylococcus aureus [12] = test: microbe, parasite or virus in culture; conditions: NRS 386
Description: Antimicrobial activity against methicillin-resistant Staphylococcus aureus NRS 386 by broth liquid microdilution method

Staphylococcus aureus [13] = test: Antimicrobial activity against vancomycin-resistant Staphylococcus aureus 10 by broth liquid microdilution method; assay type: functional
Streptococcus pneumoniae [14] = test: Antimicrobial activity against cephalosporin-resistant Streptococcus pneumoniae ATCC 51916 by broth liquid microdilution method; assay type: functional
Staphylococcus aureus [15] = test: Bactericidal activity against methicillin-resistant Staphylococcus aureus USA400 assessed as reduction in number of colony forming units at 5 times MIC incubated for 24 hrs by aliquots transfer to tryptic soy agar and grown for 18 to 20 hrs by Time-kill assay; assay type: functional, organism-based
Streptococcus pneumoniae [16] = test: Antimicrobial activity against methicillin-resistant Streptococcus pneumoniae ATCC 700677 by broth liquid microdilution method; assay type: functional

## C/C(=N\NC(=N)N)c1sc(-c2ccc(C#CCCN3CCCCC3C)cc2)nc1C (centres undefined)
Escherichia coli [1]
  MIC: > 64 µg/mL
Escherichia coli [2]
  MIC: 32 µg/mL (≈ 75.7 µM)
Staphylococcus aureus [3]
  MIC: 16 µg/mL (≈ 37.9 µM)

## C/C(=N\NC(=N)N)c1sc(-c2ccc(OCCCCN3CCSC3)cc2)nc1C
Escherichia coli [1]
  MIC: > 64 µg/mL
Escherichia coli [2]
  MIC: > 64 µg/mL
Staphylococcus aureus [3]
  MIC: > 64 µg/mL

## C/C(=N\NC(=N)N)c1sc(-c2ccc(C#CCCN3CCSC3)cc2)nc1C
Staphylococcus aureus [4]
  MBC: 32 µg/mL (≈ 77.6 µM)
  MIC: 4 µg/mL (≈ 9.69 µM)
Enterococcus faecalis
  MBC: 32 µg/mL (≈ 77.6 µM)
  MIC: 8 µg/mL (≈ 19.4 µM)
Staphylococcus aureus [5]
  MBC: 16 µg/mL (≈ 38.8 µM)
  MIC: 4 µg/mL (≈ 9.69 µM)
Staphylococcus aureus [6]
  MBC: 16 µg/mL (≈ 38.8 µM)
  MIC: 4 µg/mL (≈ 9.69 µM)
Escherichia coli [1]
  MIC: 64 µg/mL (≈ 155 µM)
Staphylococcus aureus [7]
  MBC: 32 µg/mL (≈ 77.6 µM)
  MIC: 4 µg/mL (≈ 9.69 µM)
Listeria monocytogenes
  MBC: 32 µg/mL (≈ 77.6 µM)
  MIC: 4 µg/mL (≈ 9.69 µM)
Staphylococcus aureus [8]
  Activity: 99.9%
[9]
  MBC: 8 µg/mL (≈ 19.4 µM)
  MIC: 2 µg/mL (≈ 4.85 µM)
Staphylococcus aureus [10]
  MBC: 32 µg/mL (≈ 77.6 µM)
  MIC: 4 µg/mL (≈ 9.69 µM)
Escherichia coli [2]
  MIC: 16 µg/mL (≈ 38.8 µM)
Staphylococcus aureus [3]
  MBC: 32 µg/mL (≈ 77.6 µM)
  MIC: 4 µg/mL (≈ 9.69 µM)
Staphylococcus aureus [11]
  MBC: 16 µg/mL (≈ 38.8 µM)
  MIC: 8 µg/mL (≈ 19.4 µM)
Enterococcus faecium
  MBC: 16 µg/mL (≈ 38.8 µM)
  MIC: 4 µg/mL (≈ 9.69 µM)
Staphylococcus aureus [12]
  MBC: 16 µg/mL (≈ 38.8 µM)
  MIC: 4 µg/mL (≈ 9.69 µM)
Staphylococcus aureus [13]
  MBC: 32 µg/mL (≈ 77.6 µM)
  MIC: 4 µg/mL (≈ 9.69 µM)
Streptococcus pneumoniae [14]
  MBC: 32 µg/mL (≈ 77.6 µM)
  MIC: 8 µg/mL (≈ 19.4 µM)
Staphylococcus aureus [15]
  Activity: Active
Streptococcus pneumoniae [16]
  MBC: 32 µg/mL (≈ 77.6 µM)
  MIC: 8 µg/mL (≈ 19.4 µM)

## C/C(=N\NC(=N)N)c1sc(-c2ccc(OCCCCN3CCOCC3)cc2)nc1C
Escherichia coli [1]
  MIC: > 64 µg/mL
Escherichia coli [2]
  MIC: > 64 µg/mL
Staphylococcus aureus [3]
  MIC: > 64 µg/mL

## C/C(=N\NC(=N)N)c1sc(-c2ccc(C#CCCN3CCC4CCCCC4C3)cc2)nc1C (centres undefined)
Escherichia coli [1]
  MIC: > 64 µg/mL
Escherichia coli [2]
  MIC: > 64 µg/mL
Staphylococcus aureus [3]
  MIC: > 64 µg/mL

## C/C(=N\NC(=N)N)c1sc(-c2ccc(OCCCn3ccnc3)cc2)nc1C
Escherichia coli [1]
  MIC: > 64 µg/mL
Escherichia coli [2]
  MIC: > 64 µg/mL
Staphylococcus aureus [3]
  MIC: 32 µg/mL (≈ 80.5 µM)

## C/C(=N\NC(=N)N)c1sc(-c2ccc(OCCCCCN3CCC(C)CC3)cc2)nc1C
Escherichia coli [1]
  MIC: > 64 µg/mL
Escherichia coli [2]
  MIC: 64 µg/mL (≈ 140 µM)
Staphylococcus aureus [3]
  MIC: 32 µg/mL (≈ 70.1 µM)

## C/C(=N\NC(=N)N)c1sc(-c2ccc(OCCCCCN3CCSCC3)cc2)nc1C
Escherichia coli [1]
  MIC: > 64 µg/mL
Escherichia coli [2]
  MIC: > 64 µg/mL
Staphylococcus aureus [3]
  MIC: > 64 µg/mL

## C/C(=N\NC(=N)N)c1sc(-c2ccc(OCCCN3CCN(C)CC3)cc2)nc1C
Escherichia coli [1]
  MIC: > 64 µg/mL
Escherichia coli [2]
  MIC: > 64 µg/mL
Staphylococcus aureus [3]
  MIC: > 64 µg/mL

## C/C(=N\NC(=N)N)c1sc(-c2ccc(OCCCCN3CCCCC3)cc2)nc1C
Escherichia coli [1]
  MIC: > 64 µg/mL
Escherichia coli [2]
  MIC: > 64 µg/mL
Staphylococcus aureus [3]
  MIC: > 64 µg/mL

## C/C(=N\NC(=N)N)c1sc(-c2ccc(OCCCCCN3CCC3)cc2)nc1C
Escherichia coli [1]
  MIC: > 64 µg/mL
Escherichia coli [2]
  MIC: 64 µg/mL (≈ 154 µM)
Staphylococcus aureus [3]
  MIC: 32 µg/mL (≈ 77.2 µM)

## C/C(=N\NC(=N)N)c1sc(-c2ccc(OCCCN3CCSCC3)cc2)nc1C
Escherichia coli [1]
  MIC: > 64 µg/mL
Escherichia coli [2]
  MIC: 64 µg/mL (≈ 148 µM)
Staphylococcus aureus [3]
  MIC: 32 µg/mL (≈ 74 µM)

## C/C(=N\NC(=N)N)c1sc(-c2ccc(OCCCCCN3CCCC(C)C3)cc2)nc1C (centres undefined)
Escherichia coli [1]
  MIC: > 64 µg/mL
Escherichia coli [2]
  MIC: 64 µg/mL (≈ 140 µM)
Staphylococcus aureus [3]
  MIC: 32 µg/mL (≈ 70.1 µM)

## C/C(=N\NC(=N)N)c1sc(-c2ccc(OCCCCCN3CCCCCC3)cc2)nc1C
Escherichia coli [1]
  MIC: > 64 µg/mL
Escherichia coli [2]
  MIC: > 64 µg/mL
Staphylococcus aureus [3]
  MIC: > 64 µg/mL

## C/C(=N\NC(=N)N)c1sc(-c2ccc(OCCCCN3CCCC3)cc2)nc1C
Escherichia coli [1]
  MIC: > 64 µg/mL
Escherichia coli [2]
  MIC: > 64 µg/mL
Staphylococcus aureus [3]
  MIC: > 64 µg/mL

## C/C(=N\NC(=N)N)c1sc(-c2ccc(OCCCCN3CCC(C)CC3)cc2)nc1C
Escherichia coli [1]
  MIC: > 64 µg/mL
Escherichia coli [2]
  MIC: 32 µg/mL (≈ 72.3 µM)
Staphylococcus aureus [3]
  MIC: 32 µg/mL (≈ 72.3 µM)

## C/C(=N\NC(=N)N)c1sc(-c2ccc(OCCCCCN3CCCC3)cc2)nc1C
Escherichia coli [1]
  MIC: > 64 µg/mL
Escherichia coli [2]
  MIC: > 64 µg/mL
Staphylococcus aureus [3]
  MIC: > 64 µg/mL

## C/C(=N\NC(=N)N)c1sc(-c2ccc(OCCCCCN3CCCCC3C)cc2)nc1C (centres undefined)
Escherichia coli [1]
  MIC: > 64 µg/mL
Escherichia coli [2]
  MIC: 32 µg/mL (≈ 70.1 µM)
Staphylococcus aureus [3]
  MIC: 32 µg/mL (≈ 70.1 µM)

## C/C(=N\NC(=N)N)c1sc(-c2ccc(OCCCCCN3CCSC3)cc2)nc1C
Escherichia coli [1]
  MIC: > 64 µg/mL
Escherichia coli [2]
  MIC: > 64 µg/mL
Staphylococcus aureus [3]
  MIC: > 64 µg/mL

## C/C(=N\NC(=N)N)c1sc(-c2ccc(OCCCCCn3ccnc3)cc2)nc1C
Escherichia coli [1]
  MIC: > 64 µg/mL
Escherichia coli [2]
  MIC: > 64 µg/mL
Staphylococcus aureus [3]
  MIC: > 64 µg/mL

## C/C(=N\NC(=N)N)c1sc(-c2ccc(OCCCCN3CCCCCC3)cc2)nc1C
Escherichia coli [1]
  MIC: > 64 µg/mL
Escherichia coli [2]
  MIC: > 64 µg/mL
Staphylococcus aureus [3]
  MIC: > 64 µg/mL

## C/C(=N\NC(=N)N)c1sc(-c2ccc(OCCCCN3CCCCC3C)cc2)nc1C (centres undefined)
Escherichia coli [1]
  MIC: > 64 µg/mL
Escherichia coli [2]
  MIC: > 64 µg/mL
Staphylococcus aureus [3]
  MIC: > 64 µg/mL

## C/C(=N\NC(=N)N)c1sc(-c2ccc(OCCCCCN3CCN(C)CC3)cc2)nc1C
Escherichia coli [1]
  MIC: > 64 µg/mL
Escherichia coli [2]
  MIC: > 64 µg/mL
Staphylococcus aureus [3]
  MIC: > 64 µg/mL

## C/C(=N\NC(=N)N)c1sc(-c2ccc(C#CCCN3CCC(C)CC3)cc2)nc1C
Escherichia coli [1]
  MIC: > 64 µg/mL
Escherichia coli [2]
  MIC: > 64 µg/mL
Staphylococcus aureus [3]
  MIC: 16 µg/mL (≈ 37.9 µM)

## C/C(=N\NC(=N)N)c1sc(-c2ccc(OCCCCN3CCC4CCCCC4C3)cc2)nc1C (centres undefined)
Escherichia coli [1]
  MIC: > 64 µg/mL
Escherichia coli [2]
  MIC: > 64 µg/mL
Staphylococcus aureus [3]
  MIC: > 64 µg/mL

## C/C(=N\NC(=N)N)c1sc(-c2ccc(OCCCCN3CCN(C)CC3)cc2)nc1C
Escherichia coli [1]
  MIC: > 64 µg/mL
Escherichia coli [2]
  MIC: 32 µg/mL (≈ 72.1 µM)
Staphylococcus aureus [3]
  MIC: 16 µg/mL (≈ 36.1 µM)
